Patent publication US8975259B2, “Compositions and methods for inhibiting G protein signaling” (University of Rochester, priority 2007, dated 2015)

Experiments:
[1] = test system: isolated adult mouse cardiomyocytes; experiment: Contractility of isolated adult mouse cardiomyocytes; type: cell-based; details: result in words
Description: Pretreatment with the general β-AR antagonist, propranolol, abolishes the effects of M119 and Iso on cardiomyocyte contractility.
The above data led to investigations that M119 plays a positive functional role in the heart, due in part to its inhibition of Gβγ-GRK2 interactions. Prior to pursuing in vivo studies with M119, the role of M119 affecting contractility was evaluated by assessment of isolated adult mouse cardiomyocyte contractility at baseline and in response to β-AR stimulation.
Mechanical properties of ventricular myocytes are assessed by an IonOptix Myocam system (IonOptix Inc., Milton, Mass., U.S.A.). Myocytes are superfused (at 25° C.) with Tyrodes, cells are pre-loaded in culture medium for 20 minutes with Fura-2, for concurrent calcium flux and myocyte contractility following field stimulation at 0.5 Hz.

[2] = test system: NADPH oxidase activity in fMLP-challenged HL60 cells; experiment: fMLP-dependent superoxide production (NBT) in differentiated HL60 cells; type: cell-based, human; details: 10 μM compounds or 100 nM wortmannin, 250 nM fMLP; result in words
Description: Differentiated HL60 cells stably expressing GFP-PH-Akt were challenged with 250 nM fMLP in the presence and absence of 10 μM concentrations of the indicated compounds. Translocation of GFP-PH-Akt to the plasma membrane was evaluated by Western blot. Quantification shown below. ***, P<0.001 analysis of variance (ANOVA) is statistically different from control (PBS+vehicle). […] Differentiated HL60 cells were challenged with 1 μM fMLP in the presence and absence of 10 μM concentrations of the indicated compounds. Rac1 activation was assessed by Western blots of affinity-precipitated GTP-Rac1 from HL60 cell lysates. Western blot shown is representative of three independent experiments and quantitation contains data pooled from three independent experiments±S.E.M. *P<0.05 ANOVA is statistically different from control (DMSO only). n=3. […] Differentiated HL60 cells were challenged with 250 nM fMLP or 250 nM PMA in the presence and absence of 10 μM compounds or 100 nM Wortmannin (Wtmn). NADPH oxidase activity was determined after reaction with NBT by absorbance at 540 nm. Data shown is contains data pooled from three independent experiments (each in duplicate)±S.E.M. *, P<0.05 ANOVA is statistically different from control (DMSO only).
The nitro blue tetrazolium (NBT) method was used to assess the effects of Gβγ inhibitors on NADPH oxidase activity. HL60 cells (differentiated for 4 days) were washed with and resuspended in HBSS containing calcium and magnesium (Cellgro; Mediatech, Herndon Va.) to a final concentration of 2×10^6 cells/ml. Cells (1×10^6/reaction) were pretreated with 10 μMGβγ inhibitor compound (in DMSO) or 100 nM wortmannin (Sigma Aldrich) for 10 min at 37° C. before the addition of NBT (25 μl of 10 mg/ml in methanol) and then incubated or an additional 5 min at 37° C. All treatments contained the same final concentration of DMSO. […] Cell pellets were then resuspended in 200 μl of DMSO, transferred to a 96-well plate, and absorbance was measured at 540 nm. […]

[3] = test system: primary human neutrophils; experiment: fMLP-induced chemotaxis of primary human neutrophils (Boyden chamber); type: cell-based; details: 250 nM fMLP; for effect on fMLP-induced chemotaxis: 10 μM compound or 1 μM wortmannin, result in words
Description: Differentiated HL60 cells (200 k) were pretreated with 10 μM concentrations of the indicated compound, challenged with 250 nM fMLP, and assayed for chemotaxis in a Boyden chamber for 1 h at 37° C. […] Chemotaxis was quantified as above by subtracting out background cells (0-10 cells) in the absence of chemoattractant to obtain total transmigrated cells (−100 cells GM-CSF+vehicle) and represented as the percentage of GM-CSF-treated control cells. No statistically significant difference from control was seen by ANOVA. […] Primary human neutrophils were isolated from whole blood to ≧80% purity. Neutrophils (2×10^5) were pretreated with gallein (10 μM), M119 (10 μM), M119B (10 μM), or wortmannin (wtmn.) (1 μM) and then challenged with 250 nM fMLP or 10 nM IL-8 to evaluate chemotaxis in a Boyden chamber for 1 h at 37° C. […] NS, not statistically different from control. […] Primary human neutrophils were isolated and treated (250 nM fMLP±gallein) as described above. Chemotaxis was quantified as above by subtracting out background cells to obtain total transmigrated cells and represented as the percentage of fMLP-treated control cells. Data shown are pooled from two independent experiments, each in duplicate, ±S.E.M.
Chemotaxis was assayed using a Boyden chamber (Neuro Probe, Gaithersburg, Md.) using 3-μm polyvinylpyrrolidone-free polycarbonate filters (Neuro Probe). HL60 cells (differentiated for 4 days) were washed with and resuspended in HBSS containing 1% bovine serum albumin to a final concentration of 1×10^6 cells/ml. Primary human neutrophils were washed and resuspended in NaCl buffer (140 mM NaCl, 4 mM KCl, 10 mM D-glucose, 10 mM HEPES, pH 7.4, 1 mM MgCl2, and 1 mM CaCl2) to a final concentration of 1×10^6 cells/mi. Chemoattractant [1 μM granulocyte-macrophage-colony stimulating factor (GM-CSF), 10 nM IL-8, or 250 nM fMLP; Sigma Aldrich] was added to the bottom chamber in HBSS containing 1% bovine serum albumin. Cell suspensions (0.2×10^6 cells/well) were added to the top wells of the Boyden chamber and allowed to migrate for 1 h at 37° C. When applicable, cell suspensions were preincubated for […] with small-molecule inhibitors (in DMSO) at the indicated concentrations, and the bottom chamber was adjusted to the same concentration of small molecule. All treatments contained the same final concentration of DMSO. […] Chemotactic HL60 cells were scored by counting three microscope fields and subtracting the number of cells from fMLP wells as background. […] For all the small molecules, effects of the compounds on chemokinesis was analyzed by measuring chemotaxis in the presence of 250 nM fMLP in both the upper and lower chambers of the Boyden Chamber and measuring changes in transwell migration. […]

Structure (SMILES) | effect on cardiomyocyte contractility at baseline and with isoproterenol [1] | effect on fMLP-dependent superoxide production [2] | effect on fMLP-induced chemotaxis [3] | IC50 ([3]; Homo sapiens, Neutrophil, read-out: IC50 for block of fMLP-dependent chemotaxis) [µM]
O=C(O)C1CCCCC1c1c2ccc(=O)c(O)c-2oc2c(O)c(O)ccc12 (stereo not shown) [Compound M119, cyclohexanecarboxylic acid, 2-(4,5,6-trihydroxy-3-oxo-3H-xanthen-9-yl)-(9cl)] | enhanced | significantly inhibited | significantly inhibited | 
O=C(O)c1ccccc1-c1c2ccc(=O)c(O)c-2oc2c(O)c(O)ccc12 (racemic) [Gallein] | significant positive effects | significantly inhibited | significantly inhibited | ~5
O=C(O)C1CCCCC1c1c2ccc(=O)cc-2oc2cc(O)ccc12 (stereo not shown) [Compound M119B] | no effect | did not significantly affect | no affect | 
